{"source": "patent US9663764B2", "about": "“Generation of cardiomyocytes from human pluripotent stem cells” (Wisconsin Alumni Research Foundation, priority 2011, dated 2017)", "format_in_all_cases": "cell-based, human", "key": {"[1]": {"tested_on": "19-9-11 and IMR90C4 iPSCs", "test": "Cardiac directed differentiation via small molecules on Synthemax plates, cTnT/MF20 flow cytometry", "details": "12 μM CH at day 0 and 5 μM IWP4 at day 3, day 15", "method": "cardiac directed differentiation via small molecules: Cells were dissociated and plated as described in the Activin/BMP4 protocol. When hPS cells maintained on Matrigel® or Synthemax plates achieved confluence, cells were treated with CH in RPMI/B27-insulin for 24 hr (day 0 to day 1). The medium was changed to RPMI/B27-insulin, followed by 2 μg/ml dox treatment at different times between day 1 and day 5 for transgenic cell lines. For genetically unmodified lines, 5 μM IWP2 (Tocris) or IWP4 (Stemgent) was added at day 3 and removed during the day 5 medium change. Cells were maintained in the RPMI/B27 starting from day 7, with the medium changed every 3 days.\nFlow Cytometry: Cells were dissociated into single cells and then fixed with 1% paraformaldehyde for 20 min at room temperature and stained with primary and secondary antibodies in PBS plus 0.1% Triton X-100 and 0.5% BSA. For the cell proliferation assay, a 17-hour pulse of BrdU was performed to identify dividing cardiomyocytes (Zhang et al., Circ. Res. 104, e30-41 (2009)). Data were collected on a FACSCaliber flow cytometer (Beckton Dickinson) and analyzed using FlowJo.\nWhile shRNA inhibition of β-catenin provides specific and facile temporal regulation of canonical Wnt signaling, this method requires genetic modification of the hPS cell line which limits its potential clinical utility. […]"}, "[2]": {"tested_on": "19-9-11 shcat-2 and scramble lines", "test": "Flow cytometry of Oct4 and brachyury in CH-treated 19-9-11 shcat-2 and scramble lines", "details": "for cells expressing Oct4: 4 days of CH (12 μM) in mTeSR1", "method": "Flow Cytometry: Cells were dissociated into single cells and then fixed with 1% paraformaldehyde for 20 min at room temperature and stained with primary and secondary antibodies in PBS plus 0.1% Triton X-100 and 0.5% BSA. For the cell proliferation assay, a 17-hour pulse of BrdU was performed to identify dividing cardiomyocytes (Zhang et al., Circ. Res. 104, e30-41 (2009)). Data were collected on a FACSCaliber flow cytometer (Beckton Dickinson) and analyzed using FlowJo. To test whether induction of cardiomyocyte differentiation by GSK3 inhibitors requires β-catenin, the inventors treated the shcat-2 and scramble 19-9-11 lines with CH in mTeSR1 medium. While the shcat-2 line maintained an undifferentiated morphology, the scramble line appeared to undergo differentiation (FIG. 2E), similar to non-transduced lines treated with CH (FIGS. 1B and 2B). Induction of differentiation following CH treatment in the scramble control was further indicated by diminished SOX2 and NANOG expression at day 4 (FIG. 3C). […] After 4 days of CH treatment in mTeSR1, the percentage of cells expressing Oct4 decreased to 61% in the scramble line, while 98% of the shcat-2 cells expressed Oct4 (FIG. 3D). […] To better understand early mesoderm induction via GSK3 inhibition, the inventors analyzed expression of the early mesoderm gene T in scramble and shcat-2 19-9-11 lines. As CH concentration increased, the ratio of T expression in scramble to the shcat-2 line increased (FIG. 3E). Less than 2% of shcat-2 cells expressed brachyury upon exposure to different concentrations of CH treatment for 4 days."}, "[3]": {"tested_on": "H9 hESCs", "test": "Cardiac differentiation via EBs after CH pretreatment, contracting outgrowths", "details": "0-8 μM CH for three days prior to EB formation; spontaneously-contracting outgrowths", "method": "Cardiac Differentiation Via EBs: hPS cells were passaged onto MEFs (˜13,000 cells/cm^2) and cultured in hESC medium for 2 days followed by another 3 days in hESC medium supplemented with BIO (Sigma) or CHIR99021 (Selleck). To form EBs, hPS cell aggregates generated by […] were cultured in low-attachment plates overnight in RPMI plus 20% KnockOut serum replacer. The next day, the EBs were cultured in EB20 (RPMI plus 20% FBS) for 4 days in suspension. EBs were then plated onto 0.1% gelatin-coated 6-well culture plates at 50-100 EBs/well, and cultured in EB20 medium. After 10 days of differentiation, the FBS concentration was reduced to 2% EB2 (RPMI plus 2% FBS). The number of contracting EBs was visually assessed using a microscope with a 37° C. heated stage. […] Undifferentiated H9 hESCs were cultured in the presence of 0-8 μM CH for three days prior to EB formation. EBs were cultured in suspension for 4 days before transferring to 0.1% gelatin coated plates. […] The inventors also applied the GSK3 inhibitors CH and BIO to undifferentiated H9 hESCs three days prior to directed differentiation to cardiomyocytes via Activin A and BMP4."}}}
{"smiles": "Cc1c[nH]c(-c2cnc(NCCNc3ccc(C#N)cn3)nc2-c2ccc(Cl)cc2Cl)n1", "note": "[CH]", "values": [{"measurement": "cTNT+ or MF20+ cells", "setting": "[1]", "value": "approximately 85%"}, {"measurement": "brachyury+ cells", "setting": "[2]; scramble line, 15 μM CH for 4 days", "value": 76, "unit": "%"}, {"measurement": "cells expressing Oct4", "setting": "[2]; scramble line", "value": 61, "unit": "%"}, {"measurement": "cells expressing Oct4", "setting": "[2]; shcat-2 cells", "value": 98, "unit": "%"}, {"measurement": "cells expressing brachyury", "setting": "[2]; shcat-2 cells, different concentrations of CH for 4 days", "value": "Less than 2%"}, {"measurement": "CH concentration at which efficiency of cardiomyocyte differentiation peaked", "setting": "[3]", "value": "2 to 4", "unit": "µM"}]}
